Eleven compounds from US7208517B1, “Endothelin antagonists” (Abbott Labortories, priority 1994, dated 2007) can be followed below.

This test concerns the target T1, ETA Receptor (Rattus norvegicus, UniProt P26684).
T1 construct: endogenous in cells; host or cells: MMQ rat pituitary cells (membranes)
T1 sequence (P26684 21-426): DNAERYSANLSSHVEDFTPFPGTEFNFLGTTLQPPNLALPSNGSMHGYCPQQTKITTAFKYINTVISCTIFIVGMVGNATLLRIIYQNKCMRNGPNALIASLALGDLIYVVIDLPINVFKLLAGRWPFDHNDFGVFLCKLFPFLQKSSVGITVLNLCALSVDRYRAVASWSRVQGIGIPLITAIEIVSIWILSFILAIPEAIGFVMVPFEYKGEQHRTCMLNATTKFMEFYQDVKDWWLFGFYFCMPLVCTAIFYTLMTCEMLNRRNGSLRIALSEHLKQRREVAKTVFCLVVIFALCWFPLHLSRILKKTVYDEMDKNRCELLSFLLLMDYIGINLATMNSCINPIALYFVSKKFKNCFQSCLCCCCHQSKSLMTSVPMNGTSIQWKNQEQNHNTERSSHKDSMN
The test is described as follows: [125I]ET-1 binding to membranes from MMQ cells (ETA receptor binding assay, Table 4). To be noted: test compound at 1 μM; 0.1 nM [125I]ET-1, MMQ cell membranes, 4 hours at 25° C. The procedure: Preparation of Membranes from MMQ Cells:
MMQ [MacLeod/MacQueen/Login cell line (prolactin secreting rat pituitary cells)] cells from 150 mL culture flasks were collected by centrifugation (1000×g for 10 min) and then homogenized in 25 mL of 10 mM Hepes (pH 7.4) containing 0.25 M sucrose and protease inhibitors [3 mM EDTA, 0.1 mM PMSF, and 5 μg/mL Pepstatin A] by a micro ultrasonic cell disrupter (Kontes). The mixture was centrifuged at 1000×g for 10 min. The supernatant was collected and centrifuged at 60,000×g for 60 min. The precipitate was resuspended in 20 mM Tris, pH 7.4 containing the above protease inhibitors and centrifuged again. The final pellet was resuspended in 20 mM Tris, pH 7.4 containing protease inhibitors and stored at −80° C. until used. Protein content was determined by the Bio-Rad dye-binding protein assay.
Binding assays were performed in 96-well microtiter plates pretreated with 0.1% BSA. […] After incubation, unbound ligands were separated from bound ligands by a vacuum filtration method using glass-fiber filter strips in PHD cell harvesters (Cambridge Technology, Inc., MA), followed by washing the filter strips with saline (1 mL) for three times. Nonspecific binding was determined in the presence of 1 μM ET-1.

Take `CCCN(CCN1CC(c2ccc3c(c2)OCO3)C(C(=O)O)C1c1ccc(OC)cc1)S(=O)(=O)CCCCl` (stereo not drawn) [Example 124, trans,trans-1-(2-(N-Propyl-N-(3-chloropropylsulfonyl)amino)ethyl)-2-(4-methoxyphenyl)-4-(1,3-benzodioxol-5-yl)pyrrolidine-3-carboxylic acid]: the “% Inhibition of ETA at 1 μM” value was 91.0%.
Regarding `COCCN(CCOC)C(=O)CN1CC(c2ccc3c(c2)OCO3)C(C(=O)O)C1c1ccc(OC)cc1` (stereo not drawn) [Example 36, trans,trans-2-(4-Methoxyphenyl)-4-(1,3-benzodioxol-5-yl)-1-(N,N-di(2-methoxyethyl)aminocarbonylmethyl)-pyrrolidine-3-carboxylic acid], the “% Inhibition of ETA at 1 μM” value was 94.5%.
On to `CCCCOCCN1CC(c2ccc(OC)cc2)C(C(=O)O)C1c1ccc2c(c1)OCO2` (stereo not drawn) [Example 27, trans,trans-2-(1,3-Benzodioxol-5-yl)-4-(4-methoxyphenyl)-1-(butoxyethyl)-pyrrolidine-3-carboxylic acid], for which the “% Inhibition of ETA at 1 μM” value stood at 61.2%.
Take `CCCCN(CCCC)C(=O)CN1CC(c2ccc3c(c2)CCO3)C(C(=O)O)C1c1ccc(C(C)(C)C)cc1` (stereo not drawn) [Example 159, trans,trans-1-(N,N-Di(n-butyl)aminocarbonylmethyl)-2-(4-t-butylphenyl)-4-(5-benzo-2,3-dihydrofuranylpyrrolidine-3-carboxylic acid]: the “% Inhibition of ETA at 1 μM” value is on record as 36.2%.
On to “(2R,3R,4S)-(+)-2-(4-Methoxyphenyl)-4-(1,3-benzodioxol-5-yl)-1-(tert-butyloxycarbonyl-aminocarbonylmethyl)-pyrrolidine-3-carboxylic acid [Example 95D]”, for which the “% Inhibition of ETA at 1 μM” value stood at 82.1%.
The same measure for `CCCN(CCN1CC(c2ccc3c(c2)OCO3)C(C(=O)O)C1c1ccc(OC)cc1)S(=O)(=O)CCOC` (stereo not drawn) [Example 125, trans,trans-1-(2-(N-Propyl-N-(2-methoxyethylsulfonyl)amino)ethyl)-2-(4-methoxyphenyl)-4-(1,3-benzodioxol-5-yl)pyrrolidine-3-carboxylic acid]: 97.2%; for `COc1ccc(C2C(C(=O)O)C(c3ccc4c(c3)OCO4)CN2CC(=O)N2CCc3ccccc3C2)cc1` (stereo not drawn) [Example 296, trans—trans-2-(4-Methoxyphenyl)-4-(1,3-benzodioxol-5-yl)-1-[1,2,3,4-tetrahydroisoquinolin-2-carbonylmethyl]-pyrrolidine-3-carboxylic acid]: 87.1%.
On to `CCCN(C)C(=O)CN1CC(c2ccc3ccccc3c2)C(C(=O)O)C1c1ccc(OC)cc1` (stereo not drawn) [Example 56, trans,trans-2-(4-Methoxyphenyl)-4-(2-naphthyl)-1-(N-methyl-N-propyl)aminocarbonylmethyl)-pyrrolidine-3-carboxylic acid], for which the “% Inhibition of ETA at 1 μM” value worked out at 34.3%.
The same measure for `CCCCCC1C(C(=O)O)C(c2ccc3c(c2)OCO3)CN1CCN(CCC)S(=O)(=O)CCC` (stereo not drawn) [Example 93C, trans,trans-2-(Pentyl)-4-(1,3-benzodioxol-5-yl)-1-[2-(N-propyl-N-propylsulfonylamino)ethyl]pyrrolidine-3-carboxylic acid]: 59.2%.
The same measure for `CC(C)OCCOc1ccc(C2C(C(=O)O)C(c3ccc4c(c3)OCO4)CN2CC(=O)NN(c2ccccc2)C(C)(C)C)cc1` (stereo not drawn) [Example 560, trans,trans-2-(4-(2-(2-Propoxy)ethoxy)phenyl)-4-(1,3-benzodioxol-5-yl)-1-N-phenyl-N-t-butylhydrazino carbonylmethyl)-pyrrolidine-3-carboxylic acid]: 0%; for `CCCCN(CCCC)C(=O)CN1CC(c2ccc3c(c2)OCO3)C(C(=O)O)C1c1cccc(F)c1` (stereo not drawn) [Example 167, trans,trans-1-(N,N-Di(n-butyl)aminocarbonylmethyl)-2-(3-fluorophenyl)-4-(1,3-benzodioxol-5-yl)pyrrolidine-3-carboxylic acid]: 94.4%.
